Results published in patent publication US11077090B2, “Compounds and compositions and uses thereof” (Sunovion Pharmaceuticals Inc., priority 2016, dated 2021).

Tests used:
[1] = tested on: Adult male AJ mice; assay: Tail suspension test (TST); type: in vivo; set-up: key: −: No decrease in Mean Total Time Immobile; +: Significant decrease in Mean Total Time Immobile (P < 0.05 vs vehicle)
Excerpt: The tail suspension test (TST) is a rodent screening test for potential (human) antidepressant drugs. It is based on the assumption that an animal will actively try to escape an aversive (stressful) stimulus. If escape is impossible, the animal will eventually stop trying (“give up”). In the TST, a mouse is suspended by the tail so that its body dangles in the air, head downward. Mice initially struggle to face upward and climb to a solid surface. When the animal stops struggling and hangs immobile it is considered to have “given up”. Shorter periods of immobility are characteristic of antidepressant-like activity. Accordingly, longer periods of immobility are considered indicative of a depressive-like state. It has been shown that treatment with an antidepressant drug will decrease the time the animal spends immobile. See generally L. Steru et al., Psychopharmacology (Berl). 1985; 85(3):367-70; B. Thierry et al., Psychopharmacology 1986; 90:284-85.
Adult male AJ mice from Jackson Laboratories received vehicle (sterile water) or test compound orally by gavage, or the positive control desipramine (20 mg/kg, i.p.), in 10 mL/kg injection volumes, 30 min before being subjected to the Tail Suspension Test. In this test, mice are placed in the Tail Suspension chambers (white polyvinylchloride cubicles measuring 33×33×31.75 cm Med Associates, Inc. St. Albans, Vt.) by a piece of transparent (Scotch®) tape attached to the tail, from about the mid-tail, with approximately 2 cm of tape past the end of the tail for 10 min during which the time spent immobile is measured. A reduction in total time immobile relative to the vehicle condition indicates an antidepressant drug-like response.

[2] = tested on: Male C57Bl/6J mice; assay: Prepulse inhibition of startle (PPI); type: in vivo; set-up: key: −: No change in PPI; +: Significant increase in PPI at one pre-pulse intensity (P < 0.05 vs vehicle); ++: Significant increase in PPI at two pre-pulse intensities (P < 0.05 vs vehicle); +++: Significant increase in PPI at three pre-pulse intensities (P < 0.05 vs vehicle)
Excerpt: The acoustic startle is an unconditioned reflex response to an external auditory stimulus. Prepulse inhibition of startle (PPI) refers to the reduction in the startle response caused by the presentation of a low-intensity auditory stimulus prior to the startle stimulus. The PPI paradigm is used for the study of schizophrenia and antipsychotic action due to the similarities between the results from human and rodent studies. PPI has been used as a tool for the assessment of deficiencies in sensory-motor gating observed in schizophrenia and to screen for potential antipsychotic drugs. Various psychotomimetic drugs, such as phencyclidine (PCP), can disrupt PPI. In mice, antipsychotic drugs such as haloperidol can increase PPI and clozapine can reverse the disruption of PPI induced by PCP.
Male C57Bl/6J mice from Jackson Laboratories were placed in the PPI chambers (Med Associates) for a 5 min session of white noise (70 dB) habituation. After the habituation period, the test session was initiated. The session started with a habituation block of 6 presentations of the startle stimulus alone, followed by 10 PPI blocks, each of which consisted of 6 different types of trials. Trial types were: ‘null’ (no stimuli), ‘startle’ (120 dB), ‘startle plus prepulse’ (4, 8, and 12 dB over background noise, i.e., 74, 78, or 82 dB) and ‘prepulse’ (82 dB). Trial types were presented in a random order within each block. Each trial started with a 50 ms stimulus-free period during which baseline movements were recorded. This was followed by a subsequent 20 ms period during which the prepulse stimulus was presented and responses to the prepulse measured. After a further 100 ms period, the startle stimulus was presented for 40 ms and responses recorded for 100 ms from startle onset. Responses were sampled every ms. The inter-trial interval was variable with an average of 15 s (range from 10 to 20 s). In ‘startle’ trials, the basic auditory startle response was measured. The basic startle response was calculated as the mean startle response of all ‘startle’ trials (i.e., excluding the first habituation block). In ‘startle plus prepulse’ trials, the degree of inhibition of the normal startle was calculated and expressed as a percentage of the basic startle response.
Mice were treated with vehicle or test compound orally by gavage, or haloperidol (1 mg/kg, i.p.), in 10 mL/kg injection volumes, 30 min prior to PPI test. The PPI enclosures were cleaned following each test. An increase in the percent PPI relative to the vehicle condition indicates an antipsychotic drug-like response.

SMILES | Mean Total Time Immobile ([1]; 10 mg/kg PO) | Mean Total Time Immobile ([1]; 30 mg/kg PO) | Effect on Pre-Pulse Inhibition (PPI) ([2]; 10 mg/kg PO) | Effect on Pre-Pulse Inhibition (PPI) ([2]; 30 mg/kg PO) | Mean Total Time Immobile ([1]; 3 mg/kg PO) | Effect on Pre-Pulse Inhibition (PPI) ([2]; 3 mg/kg PO)
Cc1ccc2c(c1)[C@H](N)COC2 [Example 123] | − | − | − | − |  | 
N[C@H]1COCc2ccc(F)cc21 (single isomer, unassigned) [Example 114] | − | + | − | − |  | 
Cc1ccc2c(c1)[C@@H](N)COC2 [Example 124] | − | − | − | − |  | 
N[C@@H]1COCc2ccccc21 (single isomer, unassigned) [Example 111] | − | − | − | +++ | − | −
N[C@H]1COCc2ccc3ccccc3c21 (single isomer, unassigned) [Example 118] | − | − | − | − |  | 
N[C@@H]1COCc2ccc3ccccc3c21 (single isomer, unassigned) [Example 117] | + | − | − | +++ |  | 
